Each block holds one compound with its values, some of them ahead of it.
What was measured:
[1] = target: T1, human liver GK (GST-hLGK1) (Homo sapiens, UniProt P35557); assay: Determination of GK activity value (Mant-ATP to Mant-ADP conversion, capillary electrophoresis); type: biochemical; conditions: reaction started with 25 mM D-glucose solution, 37° C., 60 min, concentration at midpoint between maximum activity value and control group activity value
T1 construct: with a BamHI site added to immediately before the initiation codon; made in house; host or cells: Escherichia coli BL21 (Stratagene), plasmid pGEX6P-2/hLGK1
T1 sequence (P35557 1-464 isoform P35557-3): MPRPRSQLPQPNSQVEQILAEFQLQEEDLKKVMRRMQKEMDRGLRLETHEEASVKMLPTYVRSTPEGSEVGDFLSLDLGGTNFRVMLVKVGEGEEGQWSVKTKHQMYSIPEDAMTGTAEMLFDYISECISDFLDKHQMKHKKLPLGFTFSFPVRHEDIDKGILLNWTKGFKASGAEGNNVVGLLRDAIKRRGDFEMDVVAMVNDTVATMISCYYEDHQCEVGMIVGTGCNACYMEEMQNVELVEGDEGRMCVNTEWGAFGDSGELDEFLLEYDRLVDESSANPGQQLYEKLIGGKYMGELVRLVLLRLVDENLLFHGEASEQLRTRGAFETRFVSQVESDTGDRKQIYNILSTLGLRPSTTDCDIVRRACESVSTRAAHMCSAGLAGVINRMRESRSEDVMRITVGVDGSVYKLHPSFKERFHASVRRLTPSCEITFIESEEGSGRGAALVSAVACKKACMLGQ
Method: Plasmid DNA to be used for the expression of a protein (GST-hLGK1) containing GST (Glutathione S-transferase) added to the amino terminal of human liver GK in Escherichia coli was prepared as follows.
First, PCR was performed using human liver cDNA (Marathon Ready cDNA, Clontech Laboratories, Inc.) as a template and two kinds of synthetic DNAs (5′-[…]-3′ (SEQ ID NO: 1) and 5′-[…]-3′ (SEQ ID NO: 2)), and the obtained DNA fragment was closed using a TOPO TA Cloning Kit (Invitrogen Corporation). PCR was performed using the obtained plasmid DNA as a template and a synthetic DNA (5′-[…] CAGAG-3′ (SEQ ID NO: 3)) with a BamHI site added to immediately before the initiation codon, and a synthetic DNA (5′-[…]-3′ (SEQ ID NO: 4)) with an EcoRI site added to immediately after the stop codon. The obtained DNA fragment was subcloned to pGEX6P-2 (Amersham Biosciences K.K.) cleaved with BamHI and EcoRI to give a plasmid (pGEX6P-2/hLGK1) for expression of human liver GK.
BL21 strain (Stratagene) transformed with pGEX6P-2/hLGK1 obtained in (1) was cultured with shaking at 37° C. for 14 hr in a 200 ml Erlenmeyer flask containing 50 ml of 100 μg/ml ampicillin-containing LB medium. The culture medium (25 ml) was diluted with 225 ml of 100 μg/ml ampicillin-containing LB medium, and further cultured with shaking at 37° C. for 1 hr in a 1 L Erlenmeyer flask. After culture, the Erlenmeyer flask was cooled on ice, 125 μL of 100 mM isopropyl-thio-β-D-galactopyranoside (IPTG) was added (final concentration 50 μM), and cultured at 17° C. for 20 hr. The culture medium was centrifuged, and the obtained fungus was disrupted by ultrasonication. The object protein (GST-hLGK1) was purified from the supernatant using Glutathione Sepharose 4B (Amersham Biosciences K.K.).
A solution (5 μL) of test compound in 50% dimethyl sulfoxide was added to each well of 384 well black plate (Nalge Nunc International K.K.). Then, a solution (35 μL) obtained by diluting GST-hLGK1 obtained in (2) with measurement buffer (containing 50 mM HEPES (pH 7.4), 200 mM KCl, 5 mM MgCl2, 2.5 mM DTT and 50 μM 2′-(or-3′)-O—(N-methylanthraniloyl)adenosine 5′-triphosphate (Mant-ATP) (Jena Bioscience GmbH)) to 6 μg/mL was added to each well.
Each well was stood at 37° C. for 10 min, and 25 mM D-glucose solution (10 μL) was added to start the reaction.
Each well after the reaction was stood at 37° C. for 60 min, and the reaction was quenched by adding 25 μL of a quenching solution (containing 200 mM HEPES (pH 7.4), 20 mM MgCl2, 200 mM EDTA, 0.03% Triton-X 100, 0.3% Coating 3 reagent (Caliper Life Sciences, Inc.)).
2′-(or -3′)-O—(N-methylanthraniloyl)adenosine 5′-triphosphate (Mant-ATP, substrate) and Mant-ADP (reaction resultant product) were separated from each well after the reaction by a microchip type capillary electrophoresis apparatus 250 HTS (Caliper Life Sciences, Inc.). The reaction rate [(reaction resultant product peak height)/(reaction resultant product peak height+substrate peak height)×100(%)] was calculated from the ratio of the substrate peak height and reaction resultant product peak height obtained by fluorescence detection (excitation wavelength 355 nm, measurement wavelength 460 nm) and used as the index of GK activity.
3.5 As a control group, the reaction rate was calculated in the same manner as above except that “solution in 50% dimethyl sulfoxide (without test compound)” was used instead of “solution of test compound in 50% dimethyl sulfoxide”.
A concentration dependency curve of the test compound was drawn with the percentage obtained by dividing the reaction rate of the well added with the test compound (test compound addition group) by the reaction rate of the control group was taken as the GK activity value of the test compound, and the concentration of the test compound at the midpoint between the maximum activity value of the test compound addition group and the control group activity value is shown as EC50 value.

Compound: COCCNC(=O)CC1CN=C(c2cc3cc(Oc4ccc(S(C)(=O)=O)nc4)ccc3[nH]2)S1 (centres unmarked) [Example 57, N-(2-Methoxyethyl)-2-[2-(5-{[6-(methylsulfonyl)pyridin-3-yl]oxy}-1H-indol-2-yl)-4,5-dihydro-1,3-thiazol-5-yl]acetamide]
EC50 [1]: 160 nM | melting point: 155 to 156 °C

Compound: COCc1ccc(Oc2cc(OC3CCOCC3)c3[nH]c(C4=NCC(CC(C)(C)O)S4)cc3c2)cn1 (centres unmarked) [Example 8, 1-{2-[5-{[6-(Methoxymethyl)pyridin-3-yl]oxy}-7-(tetrahydro-2H-pyran-4-yloxy)-1H-indol-2-yl]-4,5-dihydro-1,3-thiazol-5-yl}-2-methylpropan-2-ol]
EC50 [1]: 18 nM | melting point: 108 to 110 °C

Compound: CC(C)(O)CC1CN=C(c2cc3cc(Oc4ccc(S(C)(=O)=O)cn4)cc(OC4CCOCC4)c3[nH]2)S1 (centres unmarked) [Example 14, 2-Methyl-1-{2-[5-{[5-(methylsulfonyl)pyridin-2-yl]oxy}-7-(tetrahydro-2H-pyran-4-yloxy)-1H-indol-2-yl]-4,5-dihydro-1,3-thiazol-5-yl}propan-2-ol]
EC50 [1]: 61 nM | melting point: 129 to 130 °C

Compound: CS(=O)(=O)c1ccc(Oc2cc(OC3CCOCC3)c3[nH]c(C4=NCC(CCO)S4)cc3c2)cc1 (centres unmarked) [Example 2, 2-(2-{5-[4-(Methylsulfonyl)phenoxy]-7-(tetrahydro-2H-pyran-4-yloxy)-1H-indol-2-yl}-4,5-dihydro-1,3-thiazol-5-yl)ethanol]
EC50 [1]: 18 nM | melting point: 116 to 117 °C

Compound: CS(=O)(=O)c1ccc(Oc2ccc3[nH]c(C4=NCC(CC(=O)N5CCOCC5)S4)cc3c2)cn1 (centres unmarked) [Example 58, 5-{[6-(Methylsulfonyl)pyridin-3-yl]oxy}-2-[5-(2-morpholin-4-yl-2-oxoethyl)-4,5-dihydro-1,3-thiazol-2-yl]-1H-indole]
EC50 [1]: 120 nM | melting point: 190 to 191 °C

Compound: CCNC(=O)CC1CN=C(c2cc3cc(Oc4ccc(S(C)(=O)=O)nc4)cc(OC4CCOCC4)c3[nH]2)S1 (centres unmarked) [Example 42, N-Ethyl-2-{2-[5-{[6-(methylsulfonyl)pyridin-3-yl]oxy}-7-(tetrahydro-2H-pyran-4-yloxy)-1H-indol-2-yl]-4,5-dihydro-1,3-thiazol-5-yl}acetamide]
EC50 [1]: 21 nM | melting point: 197 to 198 °C

Compound: CN(C)C(=O)CC1CN=C(c2cc3cc(Oc4ccc(S(C)(=O)=O)nc4)ccc3[nH]2)S1 (centres unmarked) [Example 55, N,N-Dimethyl-2-[2-(5-{[6-(methylsulfonyl)pyridin-3-yl]oxy}-1H-indol-2-yl)-4,5-dihydro-1,3-thiazol-5-yl]acetamide]
EC50 [1]: 180 nM | melting point: 162 to 164 °C

The remaining lines, values ahead:

EC50 [1]: 54 nM | melting point: 152 to 154 °C
Compound: Cc1cc(Oc2ccc(S(C)(=O)=O)nc2)cc2cc(C3=NCC(CC(=O)N4CCOCC4)S3)[nH]c12 (centres unmarked) [Example 80, 7-Methyl-5-{[6-(methylsulfonyl)pyridin-3-yl]oxy}-2-[5-(2-morpholin-4-yl-2-oxoethyl)-4,5-dihydro-1,3-thiazol-2-yl]-1H-indole]

EC50 [1]: 29 nM | melting point: 202 to 203 °C
Compound: Cc1cc(Oc2ccc(S(C)(=O)=O)nc2)cc2cc(C3=NCC(CC(N)=O)S3)[nH]c12 (centres unmarked) [Example 72, 2-[2-(7-Methyl-5-{[6-(methylsulfonyl)pyridin-3-yl]oxy}-1H-indol-2-yl)-4,5-dihydro-1,3-thiazol-5-yl]acetamide]

EC50 [1]: 80 nM | melting point: 178 to 180 °C
Compound: CNC(=O)CC1CN=C(c2cc3cc(Oc4ccc(S(C)(=O)=O)nc4)ccc3[nH]2)S1 (single isomer, unassigned) [Example 78, N-Methyl-2-[2-(5-{[6-(methylsulfonyl)pyridin-3-yl]oxy}-1H-indol-2-yl)-4,5-dihydro-1,3-thiazol-5-yl]acetamide]

EC50 [1]: 33 nM | melting point: 183 to 184 °C
Compound: CNC(=O)CC1CN=C(c2cc3cc(Oc4ccc(S(C)(=O)=O)nc4)cc(C)c3[nH]2)S1 (centres unmarked) [Example 73, 2-[2-(7-Methyl-5-{[6-(methylsulfonyl)pyridin-3-yl]oxy}-1H-indol-2-yl)-4,5-dihydro-1,3-thiazol-5-yl]-N-methylacetamide]

EC50 [1]: 28 nM | melting point: 167 to 168 °C
Compound: CS(=O)(=O)c1ccc(Oc2ccc3[nH]c(C4=NCC(CC(=O)N5CCOCC5)S4)cc3c2)cn1 (single isomer, unassigned) [Example 69, 5-{[6-(Methylsulfonyl)pyridin-3-yl]oxy}-2-[5-(2-morpholin-4-yl-2-oxoethyl)-4,5-dihydro-1,3-thiazol-2-yl]-1H-indole]

EC50 [1]: 48 nM | melting point: 157 to 160 °C
Compound: Cc1cc(Oc2ccc(S(C)(=O)=O)nc2)cc2cc(C3=NCC(CC(=O)N4CC[S+]([O-])CC4)S3)[nH]c12 (centres unmarked) [Example 81, 7-Methyl-5-{[6-(methylsulfonyl)pyridin-3-yl]oxy}-2-{5-[2-(1-oxidothiomorpholin-4-yl)-2-oxoethyl]-4,5-dihydro-1,3-thiazol-2-yl}-1H-indole]
